In ChEMBL document CHEMBL3046910, “Synthesis and pharmacological evaluation of antioxidant chalcone derivatives of 2(3H)-benzoxazolones” (Med Chem Res, 2009):

Experiments:
Assay type in all cases: functional
[1] = Antioxidant activity assessed as inhibition of copper-mediated LDL oxidation by FPLC method relative to probucol
[2] = Antioxidant activity assessed as inhibition of copper-mediated LDL oxidation at 3 x 10 '-6 M by FPLC method; settings: TDE = time-dependent effect
[3] = Antioxidant activity against copper-mediated LDL oxidation assessed as oxidized LDL type D level at 3 x 10 '-6 M by FPLC method
[4] = Antioxidant activity against copper-mediated LDL oxidation assessed as oxidized LDL type C level at 3 x 10 '-6 M by FPLC method
Oryctolagus cuniculus [5] = assay: Antioxidant activity against copper-induced LDL oxidation in Watanabe Oryctolagus cuniculus (rabbit) assessed as time duration of protection at 50 mg/kg, po administered as single dose
[6] = Antioxidant activity against copper-mediated LDL oxidation assessed as native LDL type B level at 3 x 10 '-6 M by FPLC method
[7] = Antioxidant activity assessed as inhibition of copper-mediated LDL oxidation by FPLC method
[8] = Antioxidant activity against copper-mediated LDL oxidation assessed as oxidized LDL type E level at 3 x 10 '-5 M by FPLC method
Oryctolagus cuniculus [9] = assay: Antioxidant activity against copper-induced LDL oxidation in Watanabe Oryctolagus cuniculus (rabbit) assessed as time duration of protection at 250 mg/kg, po administered as single dose
[10] = Antioxidant activity against copper-mediated LDL oxidation assessed as oxidized LDL type D level at 3 x 10 '-5 M by FPLC method

Row | SMILES | Ratio [1] | Activity [2] | Activity [3] | Activity [4] | Time (Oryctolagus cuniculus [5]) | Activity [6] | Activity [7] | IC50 [7] | Activity [8] | Time (Oryctolagus cuniculus [9]) | Activity [10]
1 | CC1/C(=C\c2cc(C(C)(C)C)c(O)c(C(C)(C)C)c2)C(=O)c2cc3oc(=O)n(C)c3cc21 (configuration not stated) | 10 | tde | 8% | 8% | 48 h | 84% | Dose-dependent effect | 3 µM | – | – | –
2 | CC(C)(Sc1cc(C(C)(C)C)c(O)c(C(C)(C)C)c1)Sc1cc(C(C)(C)C)c(O)c(C(C)(C)C)c1 [PROBUCOL] | – | – | – | – | – | – | – | 30 µM | 52% | 48 h | 48%
